Results published in patent US11780830B2, “Triazolone derivatives or salts thereof and pharmaceutical compositions comprising the same” (YUHAN CORPORATION, priority 2018, dated 2023).
Structures can show the parent of a compound that is named as a salt.

Experiments:
Format in all cases: biochemical
[1] = target: T1, recombinant human MAO-B (monoamine oxidase-B) (Homo sapiens, UniProt P27338); experiment: Activity on recombinant human MAO-B, method similar to the VAP-1 assay; details: substrate 1 mM benzylamine; read-out: Inhibitory Activity (IC50, nM) MAO-B
T1 construct: purchased Sigma-Aldrich
T1 sequence (P27338 1-520): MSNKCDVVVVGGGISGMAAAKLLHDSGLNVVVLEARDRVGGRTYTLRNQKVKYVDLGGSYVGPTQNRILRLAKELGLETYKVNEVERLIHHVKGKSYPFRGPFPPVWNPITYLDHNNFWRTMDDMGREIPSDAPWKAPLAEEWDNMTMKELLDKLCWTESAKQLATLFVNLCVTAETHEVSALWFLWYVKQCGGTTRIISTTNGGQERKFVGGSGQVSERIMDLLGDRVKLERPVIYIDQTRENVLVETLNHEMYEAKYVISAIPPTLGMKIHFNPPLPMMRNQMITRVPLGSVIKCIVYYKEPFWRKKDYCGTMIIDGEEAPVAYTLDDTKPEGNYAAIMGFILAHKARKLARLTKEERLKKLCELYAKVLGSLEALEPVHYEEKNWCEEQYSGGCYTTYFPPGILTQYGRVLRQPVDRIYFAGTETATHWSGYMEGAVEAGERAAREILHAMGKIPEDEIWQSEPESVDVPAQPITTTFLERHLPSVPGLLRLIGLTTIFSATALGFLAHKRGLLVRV
Summary of the method: (§1)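 Fluorescence (544/590 nm) of resorufin formed from Amplex Red by HRP and enzyme-generated H2O2 was followed over 1-2 h. Substrates were 0.5 mM tyramine for MAO-A and 1 mM benzylamine for MAO-B; compounds were preincubated with enzyme for 30 min at 37° C. IC50 came from four-parameter logistic fitting of signal-rate inhibition.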

[2] = target: T2, recombinant human VAP-1 (Homo sapiens, UniProt Q16853); experiment: Activity on recombinant human VAP-1, HRP-coupled Amplex Red hydrogen peroxide assay; details: substrate 1 mM benzylamine; compound incubated with enzyme at 37° C. for 30 minutes; pH 7.4; read-out: Inhibitory Activity (IC50, nM) human VAP-1
T2 construct: purchased R&D systems
T2 sequence (Q16853 1-763): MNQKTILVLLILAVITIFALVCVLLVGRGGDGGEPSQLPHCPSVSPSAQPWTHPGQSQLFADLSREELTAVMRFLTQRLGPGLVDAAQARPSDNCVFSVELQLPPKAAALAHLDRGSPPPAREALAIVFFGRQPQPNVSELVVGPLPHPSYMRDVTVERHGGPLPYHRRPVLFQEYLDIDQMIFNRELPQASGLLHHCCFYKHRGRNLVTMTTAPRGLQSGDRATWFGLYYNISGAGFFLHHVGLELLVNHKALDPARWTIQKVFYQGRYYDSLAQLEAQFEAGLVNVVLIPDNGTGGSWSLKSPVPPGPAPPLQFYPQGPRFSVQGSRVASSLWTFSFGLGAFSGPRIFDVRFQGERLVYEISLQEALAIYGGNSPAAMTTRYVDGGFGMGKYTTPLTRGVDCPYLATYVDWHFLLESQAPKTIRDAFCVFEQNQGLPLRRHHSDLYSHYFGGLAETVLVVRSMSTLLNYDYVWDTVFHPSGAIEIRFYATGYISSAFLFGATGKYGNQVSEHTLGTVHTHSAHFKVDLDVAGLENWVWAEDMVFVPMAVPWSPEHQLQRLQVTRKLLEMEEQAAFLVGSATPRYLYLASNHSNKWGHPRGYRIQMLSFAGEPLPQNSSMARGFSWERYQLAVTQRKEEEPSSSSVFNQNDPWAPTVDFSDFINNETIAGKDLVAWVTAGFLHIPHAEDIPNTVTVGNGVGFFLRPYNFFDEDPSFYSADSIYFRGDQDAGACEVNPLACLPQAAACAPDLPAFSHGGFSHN
Summary of the method: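 Fluorescence of resorufin formed from H2O2 (ex 544 nm, em 590 nm) was tracked for 1-2 h after adding 1 mM benzylamine, 200 uM Amplex Red and 1 U/mL HRP to enzyme pretreated with compound for 30 min at 37 °C. IC50 values derive from four-variable logistic fits.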

[3] = target: T3, recombinant human MAO-A (monoamine oxidase-A) (Homo sapiens, UniProt P21397); experiment: Activity on recombinant human MAO-A, method similar to the VAP-1 assay; details: substrate 0.5 mM tyramine; read-out: Inhibitory Activity (IC50, nM) MAO-A
T3 construct: purchased Sigma-Aldrich
T3 sequence (P21397 1-527): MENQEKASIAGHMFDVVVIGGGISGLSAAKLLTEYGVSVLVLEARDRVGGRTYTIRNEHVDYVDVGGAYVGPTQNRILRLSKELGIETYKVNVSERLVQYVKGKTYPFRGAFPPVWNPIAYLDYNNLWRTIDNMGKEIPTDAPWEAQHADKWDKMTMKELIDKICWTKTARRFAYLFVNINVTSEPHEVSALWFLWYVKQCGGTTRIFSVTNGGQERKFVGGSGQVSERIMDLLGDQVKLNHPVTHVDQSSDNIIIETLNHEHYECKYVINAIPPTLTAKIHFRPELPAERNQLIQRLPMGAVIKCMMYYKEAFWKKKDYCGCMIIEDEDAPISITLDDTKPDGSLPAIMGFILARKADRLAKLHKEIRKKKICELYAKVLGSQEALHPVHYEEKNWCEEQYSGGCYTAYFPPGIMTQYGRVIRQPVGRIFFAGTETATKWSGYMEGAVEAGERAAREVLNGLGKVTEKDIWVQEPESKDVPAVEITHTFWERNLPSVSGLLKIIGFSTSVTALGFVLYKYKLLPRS
Summary of the method: as §1

[4] = target: T4, recombinant human DAO (diamine oxidase) (Homo sapiens, UniProt P19801); experiment: Activity on recombinant human DAO, method similar to the VAP-1 assay; details: substrate 1 mM putrescine; read-out: Inhibitory Activity (IC50, nM) DAO
T4 construct: purchased R&D systems
T4 sequence (P19801 20-751): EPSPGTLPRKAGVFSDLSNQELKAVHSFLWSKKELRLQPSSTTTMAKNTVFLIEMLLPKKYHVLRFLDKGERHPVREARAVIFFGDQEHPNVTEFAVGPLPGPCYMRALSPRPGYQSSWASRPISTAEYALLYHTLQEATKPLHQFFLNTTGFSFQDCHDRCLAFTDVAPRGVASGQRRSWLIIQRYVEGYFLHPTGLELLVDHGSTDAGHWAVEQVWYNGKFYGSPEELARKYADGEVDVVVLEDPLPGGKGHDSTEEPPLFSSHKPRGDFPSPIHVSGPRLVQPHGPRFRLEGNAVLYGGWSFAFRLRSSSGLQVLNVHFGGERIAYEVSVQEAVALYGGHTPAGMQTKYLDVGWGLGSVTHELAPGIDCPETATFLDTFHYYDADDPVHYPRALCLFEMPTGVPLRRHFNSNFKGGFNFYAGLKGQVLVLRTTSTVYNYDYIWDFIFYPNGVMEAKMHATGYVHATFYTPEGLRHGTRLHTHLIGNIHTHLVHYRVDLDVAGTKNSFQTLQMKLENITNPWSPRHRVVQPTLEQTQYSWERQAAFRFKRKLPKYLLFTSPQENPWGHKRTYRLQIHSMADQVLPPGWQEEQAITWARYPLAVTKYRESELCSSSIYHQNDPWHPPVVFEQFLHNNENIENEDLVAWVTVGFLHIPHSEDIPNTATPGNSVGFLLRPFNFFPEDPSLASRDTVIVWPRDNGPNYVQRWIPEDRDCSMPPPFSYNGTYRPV
Summary of the method: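 Inhibition of recombinant human diamine oxidase (DAO, R&D systems) was assessed by the same approach as the VAP-1 assay, using 1 mM putrescine as substrate. Hydrogen peroxide formed was detected through an HRP-coupled Amplex Red reaction yielding fluorescent resorufin, read at 544 nm excitation and 590 nm emission. IC50 values came from four-parameter logistic fitting in GraphPad Prism.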

| Compound | IC50 [1] [nM] | IC50 [2] [nM] | IC50 [3] [nM] | IC50 [4] [nM] |
| --- | --- | --- | --- | --- |
| NC/C(=C\F)Cn1ncn(Cc2ccc(-c3ccc4c(c3Cl)NC(=O)CO4)s2)c1=O [Example 95, 6-[5-[[1-[(E)-2-(aminomethyl)-3-fluoro-allyl]-5-oxo-1,2,4-triazol-4-yl]methyl]-2-thienyl]-5-chloro-4H-1,4-benzoxazin-3-one hydrochloride] | 370 | 0.25 | 25000 | 240 |
| CN1C(=O)COc2ccc(-c3ccc(Cn4cnn(C/C(=C/F)CN)c4=O)s3)cc21 [Example 96, 6-[5-(1-[(2E)-2-(aminomethyl)-3-fluoroprop-2-en-1-yl]-5-oxo-1,5-dihydro-4H-1,2,4-triazol-4-ylmethyl)thiophen-2-yl]-4-methyl-2H-1,4-benzoxazin-3(4H)-one hydrochloride] | 120 | 0.8 | 87000 | 310 |
| CC1Oc2ccc(-c3ccc(Cn4cnn(C/C(=C/F)CN)c4=O)s3)cc2NC1=O (stereo not drawn) [Example 97, 6-[5-[[1-[(E)-2-(aminomethyl)-3-fluoro-allyl]-5-oxo-1,2,4-triazol-4-yl]methyl]-2-thienyl]-2-methyl-4H-1,4-benzoxazin-3-one hydrochloride] | 380 | 0.4 | 28000 | 230 |
| CC1(C)Oc2ccc(-c3ccc(Cn4cnn(C/C(=C/F)CN)c4=O)s3)cc2NC1=O [Example 98, 6-[5-[[1-[(E)-2-(aminomethyl)-3-fluoro-allyl]-5-oxo-1,2,4-triazol-4-yl]methyl]-2-thienyl]-2,2-dimethyl-4H-1,4-benzoxazin-3-one] | 530 | 0.4 | > 100000 | 200 |
| NC/C(=C\F)Cn1ncn(Cc2ccc(-c3ccc4c(c3)NC(=O)OC4)s2)c1=O [Example 100, 7-[5-(1-[(2E)-2-(aminomethyl)-3-fluoroprop-2-en-1-yl]-5-oxo-1,5-dihydro-4H-1,2,4-triazol-4-ylmethyl)thiophen-2-yl]-1,4-dihydro-2H-3,1-benzoxazin-2-one hydrochloride] | 810 | 0.1 | > 100000 | 140 |
| NC/C(=C\F)Cn1ncn(Cc2ccc(-c3ccc4c(c3)COC(=O)N4)s2)c1=O [Example 101, 6-[5-(1-[(2E)-2-(aminomethyl)-3-fluoroprop-2-en-1-yl]-5-oxo-1,5-dihydro-4H-1,2,4-triazol-4-ylmethyl)thiophen-2-yl]-1,4-dihydro-2H-3,1-benzoxazin-2-one hydrochloride] | 540 | 0.2 | > 100000 | 900 |
| Cc1c(-c2ccc(Cn3cnn(C/C(=C/F)CN)c3=O)s2)ccc2c1COC(=O)N2 [Example 102, 6-[5-[[1-[(E)-2-(aminomethyl)-3-fluoro-allyl]-5-oxo-1,2,4-triazol-4-yl]methyl]-2-thienyl]-5-methyl-1,4-dihydro-3,1-benzoxazin-2-one] | 480 | 0.2 | > 100000 | 760 |
| CN1CCOc2cc(-c3ccc(Cn4cnn(C/C(=C/F)CN)c4=O)s3)ccc21 [Example 103, 2-[(2E)-2-(aminomethyl)-3-fluoroprop-2-en-1-yl]-4-[5-(4-methyl-3,4-dihydro-2H-1,4-benzoxazin-7-yl)thiophen-2-yl]methyl-2,4-dihydro-3H-1,2,4-triazol-3-one hydrochloride] | 1500 | 3.2 | 15000 | 1100 |
| CN1CCNc2cc(-c3ccc(Cn4cnn(C/C(=C/F)CN)c4=O)s3)ccc21 [Example 104, 2-[(E)-2-(aminomethyl)-3-fluoro-allyl]-4-[[5-(1-methyl-3,4-dihydro-2H-quinoxalin-6-yl)-2-thienyl]methyl]-1,2,4-triazol-3-one] | 1200 | 1.1 | 4000 | 390 |
